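Five concentrations, 48 hours, 96-well plates. At the GI50, growth is halved.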 The source made the active and inactive calls. No stated cut-off is given here; in the data, active = GI50 up to about 1.1 µM and inactive = higher.
Columns and labels:
Experiment in all cases: NCI-60 cell line screen, 48 h
RPMI-8226 = test system: RPMI-8226
PC-3 = test system: PC-3
SF-268 = test system: SF-268
MCF7 = test system: MCF7
NCI-H460 = test system: NCI-H460
OVCAR-5 = test system: OVCAR-5
ACHN = test system: ACHN
UACC-62 = test system: UACC-62
NCI-H226 = test system: NCI-H226
A498 = test system: A498
Hs-578T = test system: Hs-578T
T47D = test system: T47D
HT-29 = test system: HT-29
SN12C = test system: SN12C
UACC-257 = test system: UACC-257
SK-MEL-5 = test system: SK-MEL-5
MDA-MB-435 = test system: MDA-MB-435
HCT-116 = test system: HCT-116
SK-OV-3 = test system: SK-OV-3
CCRF-CEM = test system: CCRF-CEM

Measured: GI50

Cn1c(=O)c2nc(CS(=O)(=O)Cc3nc4c(=O)n(C)c(=O)n(C)c4[nH]3)[nH]c2n(C)c1=O
inactive: RPMI-8226 > 100 µM | PC-3 > 100 µM | SF-268 > 100 µM | MCF7 28.1 µM | NCI-H460 > 100 µM | OVCAR-5 > 100 µM | ACHN > 100 µM | UACC-62 > 100 µM | NCI-H226 > 100 µM | A498 > 100 µM | Hs-578T > 100 µM | T47D > 100 µM | HT-29 > 100 µM | SN12C > 100 µM | UACC-257 > 100 µM | SK-MEL-5 > 100 µM | MDA-MB-435 > 100 µM | HCT-116 > 100 µM | SK-OV-3 > 100 µM | CCRF-CEM > 100 µM

CCCC(=O)Nc1cc([N+](=O)[O-])c([N+](=O)[O-])cc1OC
inactive: RPMI-8226 19.8 µM | PC-3 27.2 µM | SF-268 16.3 µM | MCF7 29.5 µM | NCI-H460 13.3 µM | OVCAR-5 32.5 µM | ACHN 13.5 µM | UACC-62 18.2 µM | NCI-H226 23.1 µM | A498 15.7 µM | Hs-578T 14.4 µM | T47D 3.8 µM | HT-29 13.3 µM | SN12C 15.6 µM | UACC-257 18.3 µM | SK-MEL-5 16.6 µM | MDA-MB-435 18.4 µM | HCT-116 17.1 µM | SK-OV-3 13.9 µM | CCRF-CEM 14.1 µM

Reference: ChEMBL document CHEMBL1201862, “PubChem BioAssay data set” (2004)
